Reference: ChEMBL document CHEMBL2417533, “Apratoxin H and apratoxin A sulfoxide from the Red Sea cyanobacterium Moorea producens” (J Nat Prod, 2013)

system: NCI-H460; test: Cytotoxicity against human NCI-H460 cells after 48 hrs by MTT assay; type: functional, cell-based; details: NCI-H460, 48 h

Structure (SMILES) | IC50
CC[C@H](C)[C@H]1C(=O)N2CCC[C@H]2C(=O)O[C@H](C(C)(C)C)C[C@@H](C)C[C@H](O)[C@H](C)C2=N[C@@H](/C=C(\C)C(=O)N[C@@H](Cc3ccc(OC)cc3)C(=O)N(C)[C@@H](C)C(=O)N1C)C[S+]2[O-] (stereo partly drawn) | 89.9 nM
CC[C@H](C)[C@H]1C(=O)N2CCCC[C@H]2C(=O)O[C@H](C(C)(C)C)C[C@@H](C)C[C@H](O)[C@H](C)C2=N[C@@H](/C=C(\C)C(=O)N[C@@H](Cc3ccc(OC)cc3)C(=O)N(C)[C@@H](C)C(=O)N1C)CS2 | 3.4 nM
CC[C@H](C)[C@H]1C(=O)N2CCC[C@H]2C(=O)O[C@H](C(C)(C)C)C[C@@H](C)C[C@H](O)[C@H](C)C2=N[C@@H](/C=C(\C)C(=O)N[C@@H](Cc3ccc(OC)cc3)C(=O)N(C)[C@@H](C)C(=O)N1C)CS2 [APRATOXIN A] | 2.5 nM
